In patent US20240209061A1, “FUSION PROTEINS AND USES THEREOF” (Pfizer Inc., priority 2020, published 2024):
“Also recorded” adds a separate entry of the source.

Legend:
human PD-L1 = human PD-L1 (Homo sapiens, UniProt Q9NZQ7); experiment: SPR (Biacore) binding to immobilized human PD-L1; conditions: Human PD-L1 immobilized at 60 μg/ml and 75 μg/ml
Method: (physiologic temperature) with a collection rate of 10 Hz. Purified soluble ligands were covalently coupled onto a CM5 sensor chip using an Amine coupling Kit (GE Healthcare, Product #BR100050) following the manufacturer's recommendations. […] The flow was again returned to running buffer and dissociation was monitored for 300 sec. Binding affinities and rate constants were determined by fitting the resulting double referenced (Myszka, D. G. J. Mol. Recognit. 12, 279-284 (1999)) sensorgram data to a 1:1 Langmuir model with Biacore Insight Evaluation software version 2.0 (GE Healthcare).
Binding of variant CD80-Fc to PD-L1 was not detected. FIG. 9A-9D show the SPR sensorgrams depicting binding of varying concentrations of CD80-WT-Fc and CD80-K89D-D90K-T28V-T57V-Fc to two different concentrations of immobilized human PD-L1 (60 μg/ml and 75 μg/ml).

[1] = tested on: MC38 murine colorectal carcinoma cells; experiment: MC38 murine colorectal carcinoma model, IV and SC dosing; format: in vivo, mouse; conditions: for CD8^+ T cell infiltrates (% CD45): MC38, n=4
Method: MC38 murine colorectal carcinoma cells (5×10^5) were subcutaneously implanted in the hind flank of female […] mice. When tumors reach ˜50 mm^3 (day 6 after implantation), mice were randomized. PBS vehicle control or variant CD80-Fc fusion proteins were dosed intravenously (IV) or subcutaneously (SC) with doses ranging from 0.01-3.0 mg/kg on Days 0 and 3. Tumor volume was determined by caliper measurements obtained in 2 dimensions and calculated as width^2×length/2. Error bars are depicted as ±SEM.
(§1) Cytotoxic CD8^+ T cells are responsible for killing cancer cells and the measurement of CD8^+ T cells that have infiltrated tumors commonly correlates with efficacy for immune-oncology therapies. For all in vivo studies, tumors were collected ˜1 week after the first dose and dissociated by mincing, followed by incubation in an enzymatic digestion cocktail and homogenization. The resulting cell suspension was filtered and washed, and single cells were stained with antibodies to CD45, CD8, and a viability dye to detect tumor-infiltrating lymphocytes (TILs) by flow cytometry. Data were acquired on a BD LSRFortessa flow cytometer or a Cytek Aurora spectral flow cytometer. Table 31 and FIG. 18 show the amount of tumor-infiltrating CD8+ T cells expressed as a percentage of total immune cells (CD45+). Each value is the average of n=4 mice per group. Treatment with all variant CD80-Fc fusion proteins led to increase in CD8+ TILs in various tumor models.

[2] = tested on: EMT6 murine breast cancer cells; experiment: EMT6 murine breast cancer model; format: in vivo, mouse; conditions: for Day 17 tumor volume: Days 0 and 3; for % tumor growth inhibition: Day 17; for # IFNγ-producing spots, Spleen / # IFNγ-producing spots, TDLN: average of n = 4 mice; for CD8^+ T cell infiltrates (% CD45): EMT6, n=4
Method: EMT6 murine breast cancer cells (3×10^5) were orthotopically implanted in the mammary fat pad of female Balb/c mice. When tumors reached ˜90 mm^3 (day 5 after implantation), mice were randomized. PBS vehicle control or variant CD80-Fc fusion proteins were dosed intravenously at 0.01, 0.1, 1.0 and 3.0 mg/kg on Days 0 and 3. Tumor volume was determined by caliper measurements obtained in 2 dimensions and calculated as width^2×length/2. Error bars are depicted as ±SEM.
Tumor-reactive T cells in the spleen and tumor-draining lymph nodes (TDLNs) were measured by IFNγ ELIspot in mice treated with CD80-K89D-D90K-T28V-T57V-Fc.
as §1

[3] = tested on: NY-ESO1-TCR+ Jurkat reporter cells; experiment: Jurkat-NYESO1-IL-2-Luc and A375-CD64 co-stimulation assay; format: cell-based, human
From the text: Jurkat-IL-2-Luc reporter cells (Promega, Product #J1631) were engineered with T cell receptor, TCR (Wargo J. Cancer Immunol Immunother 2009; Zhao Y. J Immunol 2005, Li Y, Nat Biotechnol 2005) against HLA-A2 restricted NY-ESO1 (SLLMWITQC-SEQ ID NO: 19) epitope using lentiviral transduction system. Human melanoma cells A375, which express human HLA-A*0201, were transduced with lentiviral vector containing endogenous codon for NY-ESO1 gene (Refseq accession NM_001327.2, CCDS14758.1). Upon expression, the construct underwent proteolytic cleavage at the ubiquitin/epitope junction, thus generating free, cytoplasmic epitope, which can be translocated into the endoplasmic reticulum and loaded onto class I HLA. A375-NY-ESO1 positive cells were treated with IFNγ to induce HLA expression and NY-ESO1 antigen presentation. The HLA expression and the antigen presentation was confirmed by Western Blot. The NY-ESO1^+-A375 cells were further engineered to express human FCγRI (CD64, GenBank:AAA58414.1, RefSeq:P12314.1) for cell surface assembly and displaying of CD80-Fc fusion proteins. The expression of FCγRI was confirmed by flow cytometry analysis.
A 96 well culture plate was seeded with NY-ESO1^+-A375 cells or NY-ESO1^+/FCγRI^+-A375 at 40,000 cells per well in 100 µL growth media (RPMI, 10% Heat Inactivated FBS, 200 μg/mL Hygromycin B, 1 mM sodium pyruvate, 0.1 mM MEM NEAA, 1 μg/mL puromycin) containing 10 ng/ml of human IFNγ (R&D Systems, product #285-IF) to induce MHC-A2 expression and grown overnight at 37° C. in CO2 incubator. To each well, NY-ESO1-TCR^+ Jurkat reporter cells, 100,000 (in 20 μL media), were added. 20 μL of serial dilutions of variant CD80-Fc fusion proteins with concentrations ranging from 0-1000 ng/ml (final concentrations per well) was added with appropriate controls. Assay plates were incubated for 6 hours at 37° C. in CO2 incubator. Following equilibration, 80 μL BioGlo luminescence reagent (BioGlo Luciferase assay kit, Promega, G7940) was added into each well. Plates were incubated for 5 minutes before reading luminescence on the EnSight™ plate reader (PerkinElmer).

human PD-L1, sequence (Q9NZQ7 19-238 limits assumed): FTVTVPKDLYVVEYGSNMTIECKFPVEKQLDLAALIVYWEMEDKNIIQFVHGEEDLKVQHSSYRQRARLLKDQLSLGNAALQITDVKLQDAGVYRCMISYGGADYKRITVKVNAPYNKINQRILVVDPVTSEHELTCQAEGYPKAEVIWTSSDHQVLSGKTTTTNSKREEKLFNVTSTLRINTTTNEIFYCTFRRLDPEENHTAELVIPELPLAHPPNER

CD80-WT-Fc: wild-type human CD80 extracellular domain fused to human IgG1 Fc (C220S) [reference compound]
binding to PD-L1 (human PD-L1): detectable binding

CD80-K89D-D90K-T28V-T57V-Fc: non-cysteine stabilized variant CD80-Fc fusion protein (K89D, D90K, T28V, T57V)
binding to PD-L1 (human PD-L1): undetectable; also recorded: No binding
% tumor growth inhibition ([1]; Day 15, Intravenous 0.01 mg/kg): 17.9%
% tumor growth inhibition ([1]; Day 15, Intravenous 0.1 mg/kg): 25.2%
% tumor growth inhibition ([1]; Day 15, Intravenous 1 mg/kg): 59.9%
% tumor growth inhibition ([1]; Day 15, Intravenous 3 mg/kg): 83.8%
% tumor growth inhibition ([1]; Day 15, Subcutaneous 0.01 mg/kg): 11.1%
% tumor growth inhibition ([1]; Day 15, Subcutaneous 0.1 mg/kg): 27.1%
% tumor growth inhibition ([1]; Day 15, Subcutaneous 1 mg/kg): 73.7%
% tumor growth inhibition ([1]; Day 15, Subcutaneous 3 mg/kg): 84.4%
Day 15 tumor volume ([1]; Intravenous 0.01 mg/kg): 1042.1 mm^3
Day 15 tumor volume ([1]; Intravenous 0.1 mg/kg): 954.8 mm^3
Day 15 tumor volume ([1]; Intravenous 1 mg/kg): 535.3 mm^3
Day 15 tumor volume ([1]; Intravenous 3 mg/kg): 248.1 mm^3
CD8^+ T cell infiltrates (% CD45) ([1]; 0.01 mg/kg): 6.26 % CD45
CD8^+ T cell infiltrates (% CD45) ([1]; 0.1 mg/kg): 10.81 % CD45
CD8^+ T cell infiltrates (% CD45) ([1]; 1 mg/kg): 23.58 % CD45
Day 15 tumor volume ([1]; Subcutaneous 0.01 mg/kg): 1125.4 mm^3
Day 15 tumor volume ([1]; Subcutaneous 0.1 mg/kg): 931.7 mm^3
Day 15 tumor volume ([1]; Subcutaneous 1 mg/kg): 369.7 mm^3
Day 15 tumor volume ([1]; Subcutaneous 3 mg/kg): 240.9 mm^3
Day 17 tumor volume ([2]; 0.01 mg/kg IV): 1552.0 mm^3
% tumor growth inhibition ([2]; 0.01 mg/kg): 0.4%
# IFNγ-producing spots, Spleen ([2]; 0.01 mg/kg): 123.1
# IFNγ-producing spots, TDLN ([2]; 0.01 mg/kg): 51.9
Day 17 tumor volume ([2]; 0.1 mg/kg IV): 981.2 mm^3
% tumor growth inhibition ([2]; 0.1 mg/kg): 39.0%
# IFNγ-producing spots, Spleen ([2]; 0.1 mg/kg): 117.9
# IFNγ-producing spots, TDLN ([2]; 0.1 mg/kg): 132.3
Day 17 tumor volume ([2]; 1 mg/kg IV): 818.8 mm^3
% tumor growth inhibition ([2]; 1 mg/kg): 50.1%
# IFNγ-producing spots, Spleen ([2]; 1 mg/kg): 336.4
# IFNγ-producing spots, TDLN ([2]; 1 mg/kg): 475.2
Day 17 tumor volume ([2]; 3 mg/kg IV): 133.4 mm^3
% tumor growth inhibition ([2]; 3 mg/kg): 96.6%
# IFNγ-producing spots, Spleen ([2]; 3 mg/kg): 427.7
# IFNγ-producing spots, TDLN ([2]; 3 mg/kg): 540.9
CD8^+ T cell infiltrates (% CD45) ([2]; 0.01 mg/kg): 3.98 % CD45
CD8^+ T cell infiltrates (% CD45) ([2]; 0.1 mg/kg): 9.59 % CD45
CD8^+ T cell infiltrates (% CD45) ([2]; 1 mg/kg): 15.91 % CD45
CD8^+ T cell infiltrates (% CD45) ([2]; 3 mg/kg): 8.19 % CD45

CD80-K89Q-D90Q-E23C-A26C-Fc: disulfide stabilized variant CD80-Fc fusion protein (K89Q, D90Q, E23C, A26C)
% tumor growth inhibition ([1]; Day 16, Intravenous 0.01 mg/kg): 31.2%
% tumor growth inhibition ([1]; Day 16, Intravenous 0.1 mg/kg): 37.7%
% tumor growth inhibition ([1]; Day 16, Intravenous 1 mg/kg): 64.2%
% tumor growth inhibition ([1]; Day 16, Intravenous 3 mg/kg): 93.0%
% tumor growth inhibition ([1]; Day 16, Subcutaneous 1.5 mg/kg): 64.2%
% tumor growth inhibition ([1]; Day 16, Subcutaneous 3 mg/kg): 83.7%
Day 16 tumor volume ([1]; Intravenous 0.01 mg/kg): 905.1 mm^3
Day 16 tumor volume ([1]; Intravenous 0.1 mg/kg): 824.7 mm^3
Day 16 tumor volume ([1]; Intravenous 1 mg/kg): 495.3 mm^3
Day 16 tumor volume ([1]; Intravenous 3 mg/kg): 138.9 mm^3
CD8^+ T cell infiltrates (% CD45) ([1]; 0.01 mg/kg): 9.8 % CD45
CD8^+ T cell infiltrates (% CD45) ([1]; 0.1 mg/kg): 24.5 % CD45
CD8^+ T cell infiltrates (% CD45) ([1]; 1 mg/kg): 24.6 % CD45
CD8^+ T cell infiltrates (% CD45) ([1]; 3 mg/kg): 41.3 % CD45
Day 16 tumor volume ([1]; Subcutaneous 1.5 mg/kg): 495.6 mm^3
Day 16 tumor volume ([1]; Subcutaneous 3 mg/kg): 252.2 mm^3
Day 17 tumor volume ([2]; 0.01 mg/kg IV): 1581.7 mm^3
% tumor growth inhibition ([2]; 0.01 mg/kg): −1.7%
Day 17 tumor volume ([2]; 0.1 mg/kg IV): 912.2 mm^3
% tumor growth inhibition ([2]; 0.1 mg/kg): 43.7%
Day 17 tumor volume ([2]; 1 mg/kg IV): 357.2 mm^3
% tumor growth inhibition ([2]; 1 mg/kg): 81.4%
Day 17 tumor volume ([2]; 3 mg/kg IV): 457.5 mm^3
% tumor growth inhibition ([2]; 3 mg/kg): 74.6%

CD80-D90Q-Fc: variant CD80 ECD (D90Q) fused to human IgG1 Fc
enhanced co-stimulation compared to CD80-WT-Fc [3]: about 4 fold

CD80-K89Q-D90Q-Fc: variant CD80 ECD (K89Q, D90Q) fused to human IgG1 Fc
enhanced co-stimulation compared to CD80-WT-Fc [3]: about 4 fold
